From the supplement of paper PMC3974653
Structures can show the parent of a compound that is named as a salt.

Tested on: MTT (mouse pheochromocytoma)
Assay: IC50 of cell viability (ATP content)
Conditions: (24 or 48 h)
Outline: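 After overnight culture at 37°C, 5% CO2 in white 1536-well plates, MTT mouse pheochromocytoma cells were given 23 nl of library compound in DMSO by pintool across 8 concentrations, spanning final 0.5 nM to 46 µM. Following 24 or 48 hrs, CellTiter-Glo luminescence was read after 15 minutes and normalised against positive-control (100%) and DMSO (0%) wells. A four-parameter logistic model provided the IC50.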

## COC1=C(OC)C=C(CNCC(O)COC2=CC=C3NC(=O)\C=C/C3=C2)C=C1 (configuration not stated) [TOBORINONE]
  IC50 of cell viability: > 46 µM

## CN1N(C2=CC=CC=C2)C(=O)C(=C1/C)/NC(=O)C3=CN=CC=C3 [Nifenazone]
  IC50 of cell viability: > 46 µM

## CCN1CCC[C@H]1CNC(=O)c1c(OC)ccc(Br)c1OC [REMOXIPRIDE]
  IC50 of cell viability: > 46 µM

## CCNC(C)Cc1ccc2c(c1)OCO2 (configuration not stated) [(?)-N-Ethyl-3,4-methylenedioxyamphetamine]
  IC50 of cell viability: > 46 µM

## CCC(=O)O.CCC(=O)O.O=C(Nc1cccc(C2=NCCN2)c1)Nc1cccc(C2=NCCN2)c1 [Imidocarbe]
  IC50 of cell viability: > 46 µM

## NC(=O)n1c(O)c(C(=O)c2cccs2)c2cc(Cl)ccc21 [TENIDAPUM]
  IC50 of cell viability: > 46 µM

## CCOC(=O)/C=C(C)/C=C/CC(C)CCCC(C)C (configuration not stated) [S-HYDROPRENE]
  IC50 of cell viability: > 46 µM

## CC(C)Cc1ccc(C(C)C(=O)O)cc1 (configuration not stated) [Ibuprofen]
  IC50 of cell viability: > 46 µM

## CN1C(=O)c2ccccc2C1=O [N-Methylphthalimide]
  IC50 of cell viability: > 46 µM

## CC(C)(C)C(=O)OCC(=O)C1CCC2C3CCC4=CC(=O)CCC4(C)C3CCC12C (configuration not stated) [DESOXYCORTICOSTERONE PIVALATE]
  IC50 of cell viability: > 46 µM

## CCc1cc(Cl)c(OC)c(C(=O)NC[C@H]2CCCN2CC)c1O [S(-)Eticlopride hydrochloride]
  IC50 of cell viability: > 46 µM

## CCOc1ccc(C(=O)OCCN(CC)CC)cc1 [PARETHOXYCAINE HYDROCHLORIDE]
  IC50 of cell viability: > 46 µM

## Oc1ccc(CCNCCCCCCNCCc2ccccc2)cc1O [Dopexamine]
  IC50 of cell viability: > 46 µM

## Nc1ccn([C@@H]2CS[C@H](CO)O2)c(=O)n1 [lamivudine]
  IC50 of cell viability: > 46 µM

## CCCCCC(O)C1C(=O)OC(C)C(O)C=CC=CC=CC=CC=C(C)C(O)C(O)C(O)CC(O)CC(O)CC(O)CC(O)CC1O (configuration not stated) [Fungichromin]
  IC50 of cell viability: > 46 µM

## Cn1nnnc1SCC1=C(C(=O)O)N2C(=O)[C@@H](NC(=O)[C@H](OC=O)c3ccccc3)[C@H]2SC1 [Cefamandole nafate]
  IC50 of cell viability: > 46 µM

## COc1ccc(C(=O)/C(Br)=C/C(=O)O)cc1 [ACIDUM BROMEBRICUM]
  IC50 of cell viability: > 46 µM

## CCCCC/C=C\C/C=C\C/C=C\CCCCC(=O)O [Gamolenic acid]
  IC50 of cell viability: > 46 µM

## CC(=O)OCC(=O)NCCCOc1cccc(CN2CCCCC2)c1 [ROXATIDINE ACETATE HYDROCHLORIDE]
  IC50 of cell viability: > 46 µM

## CN/C(=N\c1ccc(C2=NNC(=O)CC2C)cc1)NC#N (configuration not stated) [Siguazodan]
  IC50 of cell viability: > 46 µM

## Cc1ccc2c(Br)cc(Br)c(O)c2n1 [Broquinaldol]
  IC50 of cell viability: > 46 µM

## CNC(=O)Oc1ccccc1C(=O)Nc1ccccc1 [Anilamate]
  IC50 of cell viability: > 46 µM

## C\C1=C\N([C@H]2C[C@H](N=[N+]=[N-])[C@@H](CO)O2)C(=O)NC1=O [ZIDOVUDINE]
  IC50 of cell viability: > 46 µM

## CC(=O)Oc1cc(C(C)C)c(OCCN(C)C)cc1C [Moxisylyte hydrochoride]
  IC50 of cell viability: > 46 µM

## CC12CCC3c4ccc(O)cc4CCC3C1CCC2=O (configuration not stated) [oestrone]
  IC50 of cell viability: > 46 µM

## CCOC(=O)COc1ccc2c(=O)cc(-c3ccccc3)oc2c1 [Efloxate]
  IC50 of cell viability: > 46 µM

## Cl/C(=C\n1cncn1)c1ccc(Cl)cc1Cl [Loreclezole hydrochloride]
  IC50 of cell viability: > 46 µM

## O=C(O)CCC(=O)OC[C@@H](NC(=O)C(Cl)Cl)[C@H](O)c1ccc([N+](=O)[O-])cc1 [Chloramphenicol succinate sodium salt]
  IC50 of cell viability: > 46 µM

## C[S+](=O)([O-])Nc1ccc([N+](=O)[O-])cc1Oc1ccccc1 [Nimesulide]
  IC50 of cell viability: > 46 µM

## O=C1c2ccccc2C(=O)c2ccccc21 [Anthraquinone]
  IC50 of cell viability: > 46 µM

## CCOC(=O)C(CS)NCCN[C@@H](CS)C(=O)OCC (some centres not stated)
  IC50 of cell viability: > 46 µM

## O=P(O)(O)OP(=O)(O)O [Phosphotex]
  IC50 of cell viability: > 46 µM

## CCCCC1C(=O)NC(=O)N(C2CCCCC2)C1=O (configuration not stated) [BUCOLOME]
  IC50 of cell viability: > 46 µM

## N\C1=N\C2=C(N=C[N]2COCCO)C(=O)N1 [Acyclovir]
  IC50 of cell viability: > 46 µM

## CN(C)CCc1ccc(O)cc1 [HORDENINE]
  IC50 of cell viability: > 46 µM

## CC[N+](CC)(CC)CCOC(=O)C(C1CCCC1)C1CCCC1 [DIPONIUM BROMIDE]
  IC50 of cell viability: > 46 µM

## C[C@]12CC[C@@H]3c4ccc(OC(=O)c5ccccc5)cc4CC[C@H]3[C@@H]1CC[C@@H]2O [ESTRADIOL BENZOATE]
  IC50 of cell viability: > 46 µM

## O=C1c2ccccc2C(=O)C1c1ccc(F)cc1 [Fluindiona]
  IC50 of cell viability: > 46 µM

## CN(C)[C@H]\1[C@@H]2C[C@@H]\3[C@@H](O)C4=C(Cl)C=CC(=C4C(=O)C3=C(\O)[C@@]2(O)C(=O)\C(=C1O)C(N)=O)O [Demeclocycline hydrochloride]
  IC50 of cell viability: > 46 µM

## C/C(=C(/CCOC(=O)c1ccccc1)SS/C(CCOC(=O)c1ccccc1)=C(\C)N(C=O)Cc1cnc(C)nc1N)N(C=O)Cc1cnc(C)nc1N [Bisbentiamine]
  IC50 of cell viability: > 46 µM

## C[C@]12CCC(=O)C[C@@H]1CC[C@@H]1[C@@H]2CC[C@]2(C)C=CC[C@@H]12 [5A-ANDROSTA-16-ENE-3-ONE]
  IC50 of cell viability: > 46 µM

## CC(S)C(=O)NCC(=O)O (configuration not stated) [TIOPRONIN]
  IC50 of cell viability: > 46 µM

## CO[C@H]1C[C@@H](O[C@@H]2[C@@H](C)O[C@@H](O[C@@H]3/C(C)=C/CC4C[C@@H](C[C@]5(C=C[C@@H](C)[C@H](C6CCCCC6)O5)O4)OC(=O)[C@@H]4C=C(C)[C@@H](O)[C@H]5OC/C(=C\C=C\[C@@H]3C)[C@]54O)C[C@H]2OC)O[C@@H](C)[C@@H]1O [Doramectin]
  IC50 of cell viability: > 46 µM

## N[C@@H](CCC(=O)O)C(=O)O [L-GLUTAMIC ACID]
  IC50 of cell viability: > 46 µM

## C=C1/C(=C\C=C2/CCC[C@]3(C)[C@@H]([C@H](C)CCCC(C)(C)O)CC[C@@H]23)C[C@@H](O)C[C@@H]1O [CALCITRIOL]
  IC50 of cell viability: > 46 µM

## CN1\C(=C(\O)C2=C(C=CS2)[S+]1([O-])=O)C(=O)NC3=CC=CC=N3 [Tenoxicam]
  IC50 of cell viability: > 46 µM

## CC(C)OC(=O)c1cc2c(OCC(O)CNC(C)(C)C)cccc2[nH]1 (configuration not stated)
  IC50 of cell viability: > 46 µM

## CC(=O)NC(=O)c1ccccc1O [Salacetamida]
  IC50 of cell viability: > 46 µM

## Nc1ccc([S+](=O)([O-])Nc2cnc3ccccc3n2)cc1 [sulfaquinoxaline]
  IC50 of cell viability: > 46 µM

## Nc1nc(O)c2ncn(CCC(CO)CO)c2n1 [PENCICLOVIR SODIUM]
  IC50 of cell viability: > 46 µM

## COc1ccc(C(CN(C)C)C2(O)CCCCC2)cc1 (configuration not stated) [VENLAFAXINE]
  IC50 of cell viability: > 46 µM

## CN(C)CCOC(c1ccccc1)c1ccccc1 [Diphenhydramine]
  IC50 of cell viability: > 46 µM

## CCOC(=O)NNc1ccc(N(CC)CC(C)O)nn1 (configuration not stated) [Cadralazine]
  IC50 of cell viability: > 46 µM

## CN(C)CCCSc1ccccc1NC(=O)/C=C/c1ccccc1 [CINANSERIN]
  IC50 of cell viability: > 46 µM

## C[C@H]1C[C@H]2[C@@H]3CCC4=CC(=O)C=C[C@]4(C)[C@@]3(F)[C@@H](O)C[C@]2(C)[C@@]1(O)C(=O)CO [Betamethasone]
  IC50 of cell viability: > 46 µM

## CC(=O)OCC(CCn1cnc2cnc(N)nc21)COC(C)=O [FAMCICLOVIR]
  IC50 of cell viability: > 46 µM

## O=C(N/N=C\c1ccc([N+](=O)[O-])o1)c1ccc(O)cc1 [Nifuroxazide]
  IC50 of cell viability: > 46 µM

## CC(C)=CCN1CC[C@@]2(C)c3cc(O)ccc3C[C@H]1[C@@H]2C [(+)-Pentazocine]
  IC50 of cell viability: > 46 µM

## Cc1ccc(S(=O)(=O)NC(=O)NC2CCCCCCC2)cc1 [GLYOCTAMIDUM]
  IC50 of cell viability: > 46 µM

## NC(=O)C1c2ccccc2CCc2ccccc21 [Cyheptamide]
  IC50 of cell viability: > 46 µM

## CCCN(CC)[C@@H](CC)C(=O)Nc1c(C)cccc1C [Etidocaine]
  IC50 of cell viability: > 46 µM

## O=C(O)c1cccc(-c2noc(-c3ccccc3F)n2)c1 [PTC 124]
  IC50 of cell viability: > 46 µM

## O=C1CC\C(=N/N1)C2=CC=C(C=C2)[N]3C=CN=C3 [Imazodan]
  IC50 of cell viability: > 46 µM

## Cn1c(=O)c2[nH]c(Br)nc2n(C)c1=O [PAMABROM]
  IC50 of cell viability: > 46 µM

## C[C@]1(O)CC[C@H]2[C@@H]3CCC/4=C/C(=O)CC[C@]4(C)[C@H]3CC[C@]12C [METHYLTESTOSTERONE]
  IC50 of cell viability: > 46 µM

## CN1CCC\C(C1)=C(/C2=CC=CS2)C3=CC=CS3 [TIPEPIDINE HIBENZATE]
  IC50 of cell viability: > 46 µM

## C[C@]12CC[C@H]3[C@@H](CCC4=CC(=O)CC[C@@H]43)[C@@H]1CC[C@@H]2O [Norandrostenolone]
  IC50 of cell viability: > 46 µM
